Results on ten molecules are retold here after PubChem BioAssay AID2060884 (Molecular Pharmacology Branch, DTP, NCI, 2025).

Several values for one entry are separate records, joined by “and”; a condition that tells them apart may be missing. Equal values may be shown once. A value given as a limit tells only on which side of the number the result lay.

The viability, T/C is the ratio of treated to control. One may read the IC50 as the concentration that gives 50% inhibition.

The experiment relates to NCI-H929 complex spheroids, viability % test/control. Description: Anticancer human tumor NCI-H929 cell line growth inhibition [RAS].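 For all read-outs here: compound exposure lasted seven days before viability was read.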 The settings on record: for viability, T/C: stronger effect = lower value. The text has this:
RAS pathway inhibitors in Combinations in Complex Spheroids
A high-throughput screen of multi-cell type tumor spheroids was designed to identify active combinations of RAS pathway inhibitors and targeted small molecules. Complex spheroids include a stromal component modeled by human endothelial cells (HUVEC) and fibroblasts modeled by human mesenchymal stem cells (MSCs). The concentration ranges selected for each drug and investigational agent were based upon clinically achievable concentrations if the clinical Cmax of the agent was known.
Compounds. The drugs and investigational agents: abemaciclib (NSC768073), cobimetinib (NSC768068), divarasib (GDC6063, NSC841802), docetaxel (NSC628503), GDC-1971 (RLY-1971, NSC841576), gemcitabine (NSC613327), inavolisib (NSC800729), ipatasertib (NSC767898), KB-0742 (NSC834161), MRTX-1133 (NSC836407), osimertinib (NSC779217), RMC-4630 (NSC839698), RMC-6236 (NSC851965), RMC-6291 (NSC852671), Ro-3306 (NSC812927), sapanisertib (NSC764658), SN-38 (NSC673596), staurosporine (NSC755774), SY5609 (NSC837396), and tovorafenib (DAY101, NSC766906), were obtained from the National Cancer Institute (NCI) Developmental Therapeutics Program Chemical Repository. The FDA-approved anticancer drug set is available from the NCI Developmental Therapeutics Program. […] The stock solutions were prepared in dimethyl sulfoxide (DMSO, Sigma-Aldrich, St. Louis, MO, cat. D2650) at 800-fold the tested concentration and stored at -70 degrees C prior to their use. All drugs and investigational agents were tested over a range starting from a high concentration at or near the clinical Cmax and decreasing in half-log increments. If the clinical Cmax for an agent had not been determined, the highest concentration tested was 10 microM.
Cell Culture. All cells were maintained in an incubator at 37 degrees C and 5% CO2 with 95% humidity. The PDC lines were cultured according to standard operating procedures established by the NCI PDMR. All PDCs were thawed and cultured in Matrigel-coated flasks prepared with a working solution of 1X Ham's F-12 nutrient mix, without supplementation (Invitrogen, Waltham, MA, cat. 11765054), 100 U/mL penicillin-streptomycin (Invitrogen, cat. 15140122), and 2.5% Matrigel (Corning Inc., Corning, NY, cat. 354248) for the first three passages. The 362531-283-R-J2-PDC and 782815-120-R-J1-PDC lines were cultured in 6C/Colon 1B media, which includes advanced DMEM/F-12 (Thermo Fisher Scientific, cat. 12634028), 10 mM HEPES (Thermo Fisher Scientific, cat. 15630080), 1X GlutaMAX supplement (Thermo Fisher Scientific, cat. 35050061), 0.1 mg/mL primocin (InvivoGen, San Diego, CA, cat. ant-pm-2), 10% defined fetal bovine serum, heat inactivated (HyClone Laboratories Inc., Logan, UT, cat. SH30070.03HI), 50% L-WRN conditioned media (ATCC, cat. CRL-3276), 1.25 mM N-Acetyl-L-cysteine (Sigma-Aldrich, cat. A9165), 10 mM nicotinamide (Sigma-Aldrich, cat. N0636), 1X B-27 supplement (Thermo Fisher Scientific, cat. 17504044), 1X N-2 supplement (Thermo Fisher Scientific, cat. 17502048), 50 ng/mL human EGF (Thermo Fisher Scientific, cat. PHG0311), and 10 microM Y-27632 dihydrochloride (Tocris Bioscience, cat. 1254). The K12877-001-R-J1-PDC line was cultured in 6I media, which includes all 6C/Colon 1B media plus 10 ng/mL human FGF-10 (PeproTech, cat. 100-26), 1 ng/mL human FGF-2 (PeproTech, cat. 100-18B), 1 µM prostaglandin E2 (Tocris Bioscience, cat. 2296), […] hydrocortisone (Sigma-Aldrich, cat. H4001), and […] bovine insulin (Sigma-Aldrich, cat. I6634). The K86415-001-R-J1-PDC line was cultured in 6D media, which includes all 6C/Colon 1B media components minus the L-WRN conditioned media. The 485176-168-R4-J1-PDC was cultured in PANC media, which includes all 6C/Colon 1B media plus 100 ng/mL human FGF-10 (PeproTech, cat. 100-26), 500 nM SB-431542 (Selleckchem, cat. S1067), and 10 nM gastrin (Tocris Bioscience, cat. 3006). […]

For `C#Cc1c(F)ccc2cc(O)cc(-c3ncc4c(N5CC6CCC(C5)N6)nc(OCC56CCCN5CC(F)C6)nc4c3F)c12` (configuration not stated), the viability, T/C (compound 0.0316 µM) is 102% [middle of 8 runs]; the viability, T/C (compound 0.1 µM) was 103% [middle of 8 runs]; the viability, T/C (compound 0.316 µM) was 101% [middle of 8 runs]; the viability, T/C (compound 1 µM) is 97% [middle of 8 runs]; the viability, T/C (compound 3.16 µM) is 97.6% [middle of 8 runs]; the viability, T/C (compound 10 µM) was 96.6% [middle of 8 runs]. For the same molecule, the 50% inhibitory concentration (IC50) (compound alone, run of 09/09/2024) was more than 10 µM.
As for `CC(=O)OC12COC1CC(O)C1(C)C(=O)C(O)C3=C(C)C(OC(=O)C(O)C(NC(=O)OC(C)(C)C)c4ccccc4)CC(O)(C(OC(=O)c4ccccc4)C21)C3(C)C` (configuration not stated), the viability, T/C reads like this: (compound 0.0316 µM) 1.05% [middle of 4 runs]; (compound 0.1 µM) 1.29% [middle of 4 runs]; (compound 0.316 µM) 1.47% [middle of 4 runs]; (compound 1 µM) 1.41% [middle of 4 runs]; (compound 3.16 µM) 1.6% [middle of 4 runs]; (compound 10 µM) 0.8% [middle of 4 runs]. The IC50 (curve of compound) is less than 0.0316 µM.
In the case of `CC(C)NCC(C(=O)N1CCN(c2ncnc3c2C(C)CC3O)CC1)c1ccc(Cl)cc1` (configuration not stated), the viability, T/C by setting is: (compound 0.0316 µM) 106% [middle of 4 runs]; (compound 0.1 µM) 102% [middle of 4 runs]; (compound 0.316 µM) 108% (2×) and 99.3% and 103%; (compound 1 µM) 104% (2×) and 62.6% and 71.6%; (compound 10 µM) 12.8% [middle of 4 runs]. Besides, the IC50 (curve of compound) is 3.45 µM [middle of 4 runs].
On to `CC(Nc1ccc2c(c1)OCCn1cc(N3C(=O)OCC3C(F)F)nc1-2)C(N)=O` (configuration not stated), for which the viability, T/C by setting is: (compound 0.0316 µM) 106% [middle of 4 runs]; (compound 0.1 µM) 102% [middle of 4 runs]; (compound 0.316 µM) 107% (2×) and 97.8% and 109%; (compound 1 µM) 108% [middle of 4 runs]. Moreover, the concentration for half-maximal inhibition (IC50) (curve of compound) was > 10 µM and 6.14 µM and 6.23 µM.
Take `CC1(C)CCC(Nc2ncc(C(F)(F)F)c(-c3c[nH]c4c(P(C)(C)=O)c(C#N)ccc34)n2)CN1` (configuration not stated): the viability, T/C is, setting by setting: (compound 0.00949 µM) 14.5% [middle of 4 runs]; (compound 0.03 µM) 8.74% [middle of 4 runs]; (compound 0.0949 µM) 9.57% [middle of 4 runs]; (compound 0.3 µM) 5.41% [middle of 4 runs].
Turning to `CC1(O)CCCC1n1c(=O)c(C(F)F)cc2cnc(NC3CCN(S(C)(=O)=O)CC3)nc21` (configuration not stated), the viability, T/C runs as follows: (compound 0.0316 µM) 116% and 105% and 113% (2×); (compound 0.316 µM) 4.47% [middle of 4 runs]; (compound 1 µM) 9.4% [middle of 4 runs]; (compound 3.16 µM) 2.17% [middle of 4 runs]; (compound 10 µM) 0.2% and 0.16% and 0.08%. For the same molecule, the 50% inhibitory concentration (IC50) (curve of compound) was 189 nM [middle of 4 runs].
`CCC(CC)c1cc(NC2CCC(N)C2)n2nccc2n1` (configuration not stated): the viability, T/C reads like this: (compound 0.0316 µM) 101% [middle of 4 runs]; (compound 0.1 µM) 98% [middle of 4 runs]; (compound 0.316 µM) 99.4% [middle of 4 runs]; (compound 3.16 µM) 1.51% [middle of 4 runs]; (compound 10 µM) 0.97% [middle of 4 runs]. Besides, the IC50 (curve of compound) was 1.74 µM [middle of 4 runs].
As for `C[C@@H](NC(=O)c1ncnc(N)c1Cl)c1ncc(C(=O)Nc2cc(C(F)(F)F)c(Cl)cn2)s1`, the viability, T/C by setting is: (compound 0.0316 µM) 106% [middle of 4 runs]; (compound 0.1 µM) 103% (2×) and 98.6% and 92.7%; (compound 0.316 µM) 98.6% [middle of 4 runs]; (compound 1 µM) 95.3% [middle of 4 runs]; (compound 3.16 µM) 97.7% [middle of 4 runs]; (compound 10 µM) 108% [middle of 4 runs]. Also, the IC50 (curve of compound) was more than 10 µM.
Consider `Cc1nc(N2CCC3(CC2)COC(C)C3N)c(CO)nc1Sc1ccnc(N)c1Cl` (configuration not stated), for which the viability, T/C by setting is: (compound 0.0316 µM) 110% [middle of 4 runs]; (compound 0.1 µM) 99% [middle of 4 runs]; (compound 0.316 µM) 107% [middle of 4 runs]; (compound 1 µM) 100% [middle of 4 runs]; (compound 3.16 µM) 105% [middle of 4 runs]; (compound 10 µM) 103% [middle of 4 runs]. Further, the IC50 (curve of compound) is more than 10 µM.
Turning to `NC1c2ccccc2OC12CCN(c1cnc3c(N4CCCc5ncccc54)n[nH]c3n1)CC2` (configuration not stated), the viability, T/C runs as follows: (compound 0.0316 µM) 104% [middle of 4 runs]; (compound 0.1 µM) 99.1% [middle of 4 runs]; (compound 0.316 µM) 104% [middle of 4 runs]; (compound 1 µM) 102% [middle of 4 runs]; (compound 3.16 µM) 101% [middle of 4 runs]; (compound 10 µM) 69.9% [middle of 4 runs]. In addition, under “curve of compound”, the IC50 is more than 10 µM.
